Laboratory results: patent publication US11388924B2 (priority 2018, dated 2022)
Read-outs that look alike come from different tables or passages of the source.

Assays:
[1] = 20° C.; cited from earlier work
[2] = pig's nasal mucosa; cited from earlier work
[3] = From the text: The neutralization reaction in vegetable glycerin is less favorable in view of the reduced solubility of CO2 (Nunes et al., 2013—Solubility of CO2 in glycerol at high pressures. J. of Fluid Phase Equilibria; 358: 105-107).
In an embodiment of the present disclosure, the experimental setup described by Bihong, et al., 2015 (Mechanisms of CO2 Capture into Monoethanolamine Solution with Different CO2 Loading during the Absorption/Desorption Processes. J. of Environmental Science technology; 49 (17): 10728-10735) was implemented. […] In a further embodiment of the present disclosure, the neutralization with CO2 was performed at pressures ranging from about 0.1 MPa to about 2.7 MPa.
The organic acid is typically selected based on volatility under vaping conditions, tastelessness, low toxicity or nontoxicity to human health, ease of manipulation, ability to form liquid salts and […] an unpleasant sensation such as shortness of breath. In a further embodiment of the present disclosure, the organic acid is glycolic acid.

[4] = after absorption through the lung; cited from earlier work
[5] = pH 7.4; cited from earlier work
[6] = 25° C., cited from earlier work

Excerpt for subjects: This sensation ranges from a smooth satisfying catch as the vapor travels down the throat to an intolerable harshness.

CN1CCCC1c1cccnc1 (stereo not shown) [nicotine]
pKa [1]: 6.15 | permeation of the protonated form versus the unionized form [2]: higher than that for the unionized form | pH reached by neutralization with CO2 ([3]; about 25° C., about 0.41 MPa): ≤ 7.5 | final pH after neutralization with CO2 ([3]; in water): 6.8 | initial pH ([3]; pure nicotine in propylene glycol, before neutralization): above 9.5 | estimated time to reach the brain [4]: 10 to 20 s | burning sensation in the throat (subjects; in vivo): diminishes or disappears | feeling of shortness of breath (subjects; in vivo): waned or disappeared | nicotine ionized [5]: ~69% | nicotine unionized [5]: 31%

O=C(O)CC(O)(CC(=O)O)C(=O)O [citric acid]
sensation produced by the acid used in the formulation (subjects; in vivo): unpleasant feeling

CC(O)C(=O)O (stereo not shown) [lactic acid]
sensation produced by the acid used in the formulation (subjects; in vivo): unpleasant feeling

O=C=O [CO2]
number moles of CO2 dissolved ([6]; acetone, 0.52 MPa): 0.0876 | number moles of CO2 dissolved ([6]; ethanol, 0.41 MPa): 0.0349 | number moles of CO2 dissolved ([6]; propylene glycol, 0.38 MPa): 0.0100

O=C(O)CC(O)C(=O)O (stereo not shown) [malic acid]
sensation produced by the acid used in the formulation (subjects; acid in nicotine formulations): unpleasant feeling
